Biological target: T1, PDE10A enzyme (Homo sapiens, UniProt Q9Y233)
T1 construct: made in house; host or cells: E. coli BL21(DE3)
Experiment: PDE10A inhibition assay
Type: biochemical
Details: 3H-labelled cAMP substrate 5 nM, SPA beads, one hr at room temperature
Protocol: Active PDE10A enzyme is prepared in a number of ways for use in PDE assays (Loughney, K. et al. Gene 1999, 234, 109-117; Fujishige, K. et al. Eur J Biochem. 1999, 266, 1118-1127 and Soderling, S. et al. Proc. Natl. Acad. Sci. 1999, 96, 7071-7076). PDE10A can be expressed as full-length proteins or as truncated proteins, as long as they express the catalytic domain. PDE10A can be prepared in different cell types, for example insect cells or E. coli. An example of a method to obtain catalytically active PDE10A is as follows: The catalytic domain of human PDE10A (amino acids 440-779 from the sequence with accession number NP 006652) is amplified from total human brain total RNA by standard RT-PCR and is cloned into the BamH1 and Xho1 sites of the pET28a vector (Novagen). Expression in coil is performed according to standard protocols. Briefly, the expression plasmids are transformed into the BL21(DE3) E. coli strain, and 50 mL cultures inoculated with the cells allowed to grow to an OD600 of 0.4-0.6 before protein expression is induced with 0.5mM IPTG. Following induction, the cells are incubated overnight at room temperature, after which the cells are collected by centrifugation. Cells expressing PDE10A are resuspended in 12 mL (50 mM TRIS-HCl-pH8.0, 1 mM MgCl2 and protease inhibitors). The cells are lysed by sonication, and after all cells are lysed, TritonX100 is added according to Novagen protocols.
A PDE10A assay may for example, be performed as follows: The assay is performed in 60 uL samples containing a fixed amount of the relevant PDE enzyme (sufficient to convert 20-25% of the cyclic nucleotide substrate), a buffer (50 mM HEPES7.6; 10 mM MgCl2; 0.02% Tween20), 0.1 mg/mI BSA, 225 pCi of ^3H-labelled cyclic nucleotide substrate, tritium labeled cAMP to a final concentration of 5 nM and varying amounts of inhibitors. Reactions are initiated by addition of the cyclic nucleotide substrate, and reactions are allowed to proceed for one hr at room temperature before being terminated through mixing with 15 uL 8 mg/mL yttrium silicate SPA beads (Amersham). The beads are allowed to settle for one hr in the dark before the plates are counted in a Wallac 1450 Microbeta counter. The measured signal can be converted to activity relative to an uninhibited control (100%) and IC50 values can be calculated using the XIfit extension to EXCEL.

T1 sequence (Q9Y233 716-1055): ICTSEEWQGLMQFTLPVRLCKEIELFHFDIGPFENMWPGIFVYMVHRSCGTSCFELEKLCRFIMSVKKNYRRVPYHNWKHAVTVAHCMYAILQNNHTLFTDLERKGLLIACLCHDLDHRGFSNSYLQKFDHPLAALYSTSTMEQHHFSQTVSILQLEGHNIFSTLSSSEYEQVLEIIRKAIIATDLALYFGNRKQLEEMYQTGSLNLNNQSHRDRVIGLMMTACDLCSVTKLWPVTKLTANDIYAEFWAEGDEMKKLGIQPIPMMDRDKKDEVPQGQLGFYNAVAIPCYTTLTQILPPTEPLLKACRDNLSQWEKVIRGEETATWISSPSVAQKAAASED

SMILES | IC50
Cc1cnc(-c2nc(CCc3nc4c(C)ncc(C)n4n3)n(C)n2)s1 [5,8-Dimethyl-2-{2-[2-methyl-5-(5-methyl-thiazol-2-yl)-2H-[1,2,4]triazol-3-yl]-ethyl}-[,2,4]triazolo[1,5-a]pyrazine] | 120 nM
Cc1ncc(C)n2nc(CCc3nc(-c4ccccc4)nn3CCCN)nc12 [3-{5-[2-(5,8-Dimethyl-[1,2,4]triazolo[1,5-a]pyrazin-2-yl)-ethyl]-3-phenyl-[1,2,4]triazol-1-yl}-propylamine] | 100 nM
COc1ccc(C)n2nc(CSc3nc(-c4ccccc4)n[nH]3)nc12 [8-Methoxy-5-methyl-2-(5-phenyl-2H-[1,2,4]triazol-3-ylsulfanylmethyl)-[1,2,4]triazolo[1,5-a]pyridine] | 52 nM
Cc1cc(C)n2nc(CCc3nc(-c4ccccc4)nn3C)nc2n1 [5,7-Dimethyl-2-[2-(2-methyl-5-phenyl-2H-[1,2,4]triazol-3-yl)-ethyl]-[1,2,4]triazolo[1,5-a]pyrimidine] | 59 nM
Cc1ncc(C)n2nc(CCc3nc(-c4ccccc4)nn3CCO)nc12 [2-{5-[2-(5,8-Dimethyl-[1,2,4]triazolo[1,5-a]pyrazin-2-yl)-ethyl]-3-phenyl-[1,2,4]triazol-1-yl}-ethanol] | 69 nM
Cc1ncc(C)n2nc(CCc3nc(-c4cscn4)nn3C)nc12 [5,8-Dimethyl-2-[2-(2-methyl-5-thiazol-4-yl-2H-[1,2,4]triazol-3-yl)-ethyl-]-[1,2,4]triazolo[1,5-a]pyrazine] | 25 nM
Cc1cccc2nc(CCc3nc(-c4ccccc4)nn3C)nn12 [5-Methyl-2-[2-(2-methyl-5-phenyl-2H-[1,2,4]triazol-3-yl)-ethyl]-[1,2,4]triazolo[1,5-a]pyridine] | 220 nM
COc1ccc(C)n2nc(CCc3nc(-c4ccccc4)nn3CC(F)(F)F)nc12 [8-Methoxy-5-methyl-2-{2-[5-phenyl-2-(2,2,2-trifluoro-ethyl)-2H-[1,2,4]triazol-3-yl]-ethyl}-[1,2,4]triazolo[1,5-a]pyridine] | 180 nM
COCCn1nc(-c2ccccc2)nc1CCc1nc2c(OC)ccc(C)n2n1 [8-Methoxy-2-{2-[2-(2-methoxy-ethyl)-5-phenyl-2H-[1,2,4]triazol-3-yl]-ethyl}-5-methyl-[1,2,4]triazolo[1,5-a]pyridine] | 62 nM
Cc1ncc(C)n2nc(CCc3nc(-c4nccs4)nn3C)nc12 [5,8-Dimethyl-2-[2-(2-methyl-5-thiazol-2-yl-2H-[1,2,4]triazol-3-yl)-ethyl]-[1,2,4]triazolo[1,5-a]pyrazine] | 36 nM
COc1ccc(C)n2nc(CCc3nc(-c4ccccc4)nn3CCO)nc12 [2-{5-[2-(8-Methoxy-5-methyl-[1,2,4]triazolo[1,5-a]pyridin-2-yl)-ethyl]-3-phenyl-[1,2,4]triazol-1-yl}-ethanol] | 23 nM
Cc1cccc2nc(CSc3nc(-c4ccccc4)n[nH]3)nn12 [5-Methyl-2-(5-phenyl-2H-[1,2,4]triazol-3-ylsulfanylmethyl)-[1,2,4]triazolo[1,5-a]pyridine] | 200 nM
Cc1ncc(C)n2nc(CCc3nc(-c4ncccn4)nn3C)nc12 [5,8-Dimethyl-2-[2-(2-methyl-5-pyrimidin-2-yl-2H-[1,2,4]triazol-3-yl)-ethyl]-[1,2,4]triazolo[1,5-a]pyrazine] | 53 nM
CCc1ccc(C)n2nc(CCc3nc(-c4ccccc4)nn3C)nc12 [8-Ethyl-5-methyl-2-[2-(2-methyl-5-phenyl-2H-[1,2,4]triazol-3-yl)-ethyl]-[1,2,4]triazolo[1,5-a]pyridine] | 7.5 nM
Cc1ncc(C)n2nc(CCc3nc(-c4ccco4)n(C)n3)nc12 [2-[2-(5-Furan-2-yl-1-methyl-1H-[1,2,4]triazol-3-yl)-ethyl]-5,8-dimethyl-[1,2,4]triazolo[1,5-a]pyrazine] | 38 nM
Cc1ncc(C)n2nc(CCc3nc(-c4ccsc4)nn3C)nc12 [5,8-Dimethyl-2-[2-(2-methyl-5-thiophen-3-yl-2H-[1,2,4]triazol-3-yl)-ethyl]-[1,2,4]triazolo[1,5-a]pyrazine] | 5.3 nM
Cc1cnc(C)n2nc(CCc3nc(-c4ccccc4)nn3C)nc12 [5,8-Dimethyl-2-[2-(2-methyl-5-phenyl-2H-[1,2,4]triazol-3-yl)-ethyl]-[1,2,4]triazolo[1,5-c]pyrimidine] | 36 nM
Cc1ncc(C)n2nc(CCc3nc(-c4cccnc4)nn3C)nc12 [5,8-Dimethyl-2-[2-(2-methyl-5-pyridin-3-yl-2H-[1,2,4]triazol-3-yl)-ethyl]-[1,2,4]triazolo[1,5-a]pyrazine] | 110 nM
CCc1ccc(C)n2nc(CCc3nc(-c4ccccc4)nn3C(C)C)nc12 [8-Ethyl-2-[2-(2-isopropyl-5-phenyl-2H-[1,2,4]triazol-3-yl)-ethyl]-5-methyl-[1,2,4]triazolo[1,5-a]pyridine] | 40 nM
CCOC(=O)Cn1nc(-c2ccccc2)nc1CCc1nc2c(OC)ccc(C)n2n1 [{5-[2-(8-Methoxy-5-methyl-[1,2,4]triazolo[1,5-a]pyridin-2-yl)-ethyl]-3-phenyl-[1,2,4]triazol-1-yl}-acetic acid ethyl ester] | 81 nM
Cc1ncc(C)n2nc(CCc3nc(-c4ccccc4)nn3C)nc12 [5,8-Dimethyl-2-[2-(2-methyl-5-phenyl-2H-[1,2,4]triazol-3-yl)-ethyl]-[1,2,4]triazolo[1,5-a]pyrazine] | 15 nM
CCc1ccc(C)n2nc(CCc3nc(-c4ccccc4)nn3CCC#N)nc12 [3-{5-[2-(8-Ethyl-5-methyl-[1,2,4]triazolo[1,5-a]pyridin-2-yl)-ethyl]-3-phenyl-[1,2,4]triazol-1-yl}-propionitrile] | 14 nM
Cc1ncc(C)n2nc(CSc3nc(-c4ccccc4)n[nH]3)nc12 [5,8-Dimethyl-2-(5-phenyl-2H-[1,2,4]triazol-3-ylsulfanylmethyl)-[1,2,4]triazolo[1,5-a]pyrazine] | 53 nM
Cc1ncc(C)n2nc(CCc3nc(-c4ncco4)nn3C)nc12 [5,8-Dimethyl-2-[2-(2-methyl-5-oxazol-2-yl-2H-[1,2,4]triazol-3-yl)-ethyl]-[1,2,4]triazolo[1,5-a]pyrazine] | 120 nM
Cc1ccc(C)n2nc(CCc3nc(-c4ccccc4)nn3C)nc12 [5,8-Dimethyl-2-[2-(2-methyl-5-phenyl-2H-[1,2,4]triazol-3-yl)-ethyl]-[1,2,4]triazolo[1,5-a]pyridine] | 6.7 nM
CCc1ccc(C)n2nc(CCc3nc(-c4ccccc4)cn3CCCN)nc12 [3-{2-[2-(8-Ethyl-5-methyl-[1,2,4]triazolo[1,5-a]pyridin-2-yl)-ethyl]-4-phenyl-imidazol-1-yl}-propylamine] | 150 nM
COc1cccn2nc(CCc3nc(-c4ccccc4)nn3C)nc12 [8-Methoxy-2-[2-(2-methyl-5-phenyl-2H-[1,2,4]triazol-3-yl)-ethyl]-[1,2,4]triazolo[1,5-a]pyridine] | 560 nM
COc1ccc(C)n2nc(CCc3nc(-c4ccccc4)nn3C(C)C)nc12 [2-[2-(2-Isopropyl-5-phenyl-2H-[1,2,4]triazol-3-yl)-ethyl]-8-methoxy-5-methyl-[1,2,4]triazolo[1,5-a]pyridine] | 56 nM
Cc1ncc(C)n2nc(CCc3nc(-c4ccccn4)nn3C)nc12 [5,8-Dimethyl-2-[2-(2-methyl-5-pyridin-2-yl-2H-[1,2,4]triazol-3-yl)-ethyl]-[1,2,4]triazolo[1,5-a]pyrazine] | 39 nM

Reference: US8785653B2, “(3-aryl-1H-1,2,4-triazol-5-yl)-linked heterocycle derivatives” (H. Lundbeck A/S, priority 2009, dated 2014)
